Measured values reported in PubChem BioAssay (NCI).
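Step 1: Grow cells in 96-well plates. Step 2: Expose to compound for 48 hours at 5 concentrations. Step 3: Interpolate endpoints linearly; if unreached, use highest concentration. At the TGI there is no net growth.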

Legend:
Assay in all cases: NCI-60 cell line screen, 48 h
NCI-H522 lung = test system: NCI-H522 lung
KM12 colon = test system: KM12 colon
COLO 205 colon = test system: COLO 205 colon
HOP-92 NSCLC = test system: HOP-92 NSCLC
BT-549 breast = test system: BT-549 breast
PC-3 prostate = test system: PC-3 prostate
MCF7 breast = test system: MCF7 breast
SW-620 colon = test system: SW-620 colon
TK-10 renal = test system: TK-10 renal
ACHN renal = test system: ACHN renal
SF-295 CNS = test system: SF-295 CNS
MOLT-4 leukemia = test system: MOLT-4 leukemia
A549 NSCLC = test system: A549 NSCLC
CCRF-CEM leukemia = test system: CCRF-CEM leukemia
CAKI-1 renal = test system: CAKI-1 renal
OVCAR-5 ovarian = test system: OVCAR-5 ovarian
SNB-75 CNS = test system: SNB-75 CNS
SNB-19 CNS = test system: SNB-19 CNS
NCI-H226 lung = test system: NCI-H226 lung
OVCAR-8 ovarian = test system: OVCAR-8 ovarian
M14 melanoma = test system: M14 melanoma
NCI-H460 lung = test system: NCI-H460 lung
UACC-257 melanoma = test system: UACC-257 melanoma
RPMI-8226 leukemia = test system: RPMI-8226 leukemia
HL-60(TB) leukemia = test system: HL-60(TB) leukemia
IGROV1 ovarian = test system: IGROV1 ovarian
RXF 393 renal = test system: RXF 393 renal
SK-MEL-5 melanoma = test system: SK-MEL-5 melanoma
SN12C renal = test system: SN12C renal
MDA-MB-435 = test system: MDA-MB-435
HCC-2998 colon = test system: HCC-2998 colon
786-0 renal = test system: 786-0 renal
EKVX NSCLC = test system: EKVX NSCLC
SK-MEL-28 melanoma = test system: SK-MEL-28 melanoma
UO-31 renal = test system: UO-31 renal
SF-539 CNS = test system: SF-539 CNS
K-562 leukemia = test system: K-562 leukemia
MDA-N = test system: MDA-N
DU-145 prostate = test system: DU-145 prostate
OVCAR-3 ovarian = test system: OVCAR-3 ovarian
MALME-3M melanoma = test system: MALME-3M melanoma
HCT-15 colon = test system: HCT-15 colon
LOX IMVI melanoma = test system: LOX IMVI melanoma
SK-MEL-2 melanoma = test system: SK-MEL-2 melanoma
SK-OV-3 ovarian = test system: SK-OV-3 ovarian
NCI-H23 lung = test system: NCI-H23 lung
HCT-116 colon = test system: HCT-116 colon
NCI/ADR-RES ovarian = test system: NCI/ADR-RES ovarian
UACC-62 melanoma = test system: UACC-62 melanoma
SR leukemia = test system: SR leukemia
MDA-MB-231 breast = test system: MDA-MB-231 breast
U251 CNS = test system: U251 CNS
OVCAR-4 ovarian = test system: OVCAR-4 ovarian
A498 renal = test system: A498 renal
HS 578T breast = test system: HS 578T breast
T-47D breast = test system: T-47D breast
HOP-62 NSCLC = test system: HOP-62 NSCLC
HT29 colon = test system: HT29 colon
SF-268 CNS = test system: SF-268 CNS

COC(=O)CC1CN(C(=O)OCc2ccccc2)C(C)(C)O1 (stereo unspecified)
TGI (NCI-H522 lung): > 100 µM
TGI (KM12 colon): > 100 µM
TGI (COLO 205 colon): > 100 µM
TGI (HOP-92 NSCLC): > 100 µM
TGI (BT-549 breast): 66.9 µM
TGI (PC-3 prostate): > 100 µM
TGI (MCF7 breast): > 100 µM
TGI (SW-620 colon): > 100 µM
TGI (TK-10 renal): > 100 µM
TGI (ACHN renal): > 100 µM
TGI (SF-295 CNS): > 100 µM
TGI (MOLT-4 leukemia): > 100 µM
TGI (A549 NSCLC): > 100 µM
TGI (CCRF-CEM leukemia): > 100 µM
TGI (CAKI-1 renal): > 100 µM
TGI (OVCAR-5 ovarian): > 100 µM
TGI (SNB-75 CNS): 75.8 µM
TGI (SNB-19 CNS): > 100 µM
TGI (NCI-H226 lung): 22.7 µM
TGI (OVCAR-8 ovarian): > 100 µM
TGI (M14 melanoma): > 100 µM
TGI (NCI-H460 lung): > 100 µM
TGI (UACC-257 melanoma): > 100 µM
TGI (RPMI-8226 leukemia): > 100 µM
TGI (HL-60(TB) leukemia): > 100 µM
TGI (IGROV1 ovarian): > 100 µM
TGI (RXF 393 renal): > 100 µM
TGI (SK-MEL-5 melanoma): > 100 µM
TGI (SN12C renal): > 100 µM
TGI (MDA-MB-435): > 100 µM
TGI (HCC-2998 colon): > 100 µM
TGI (786-0 renal): > 100 µM
TGI (EKVX NSCLC): > 100 µM
TGI (SK-MEL-28 melanoma): > 100 µM
TGI (UO-31 renal): > 100 µM
TGI (SF-539 CNS): > 100 µM
TGI (K-562 leukemia): > 100 µM
TGI (MDA-N): > 100 µM
TGI (DU-145 prostate): > 100 µM
TGI (OVCAR-3 ovarian): > 100 µM
TGI (MALME-3M melanoma): > 100 µM
TGI (HCT-15 colon): > 100 µM
TGI (LOX IMVI melanoma): > 100 µM
TGI (SK-MEL-2 melanoma): > 100 µM
TGI (SK-OV-3 ovarian): > 100 µM
TGI (NCI-H23 lung): > 100 µM
TGI (HCT-116 colon): > 100 µM
TGI (NCI/ADR-RES ovarian): > 100 µM
TGI (UACC-62 melanoma): > 100 µM
TGI (SR leukemia): > 100 µM
TGI (MDA-MB-231 breast): > 100 µM
TGI (U251 CNS): > 100 µM
TGI (OVCAR-4 ovarian): > 100 µM
TGI (A498 renal): > 100 µM

CC1=C(C(=O)OC23CC4CC(CC(C4)C2)C3)C(c2ccccc2OC(F)F)C(C(=O)OC23CC4CC(CC(C4)C2)C3)=C(C)N1 (stereo unspecified)
TGI (HS 578T breast): > 100 µM
TGI (NCI-H522 lung): > 100 µM
TGI (T-47D breast): > 100 µM
TGI (KM12 colon): > 100 µM
TGI (COLO 205 colon): > 100 µM
TGI (HOP-92 NSCLC): > 100 µM
TGI (BT-549 breast): > 100 µM
TGI (MCF7 breast): > 100 µM
TGI (SW-620 colon): > 100 µM
TGI (SF-295 CNS): > 100 µM
TGI (MOLT-4 leukemia): > 100 µM
TGI (A549 NSCLC): > 100 µM
TGI (CCRF-CEM leukemia): > 100 µM
TGI (CAKI-1 renal): > 100 µM
TGI (HOP-62 NSCLC): > 100 µM
TGI (OVCAR-5 ovarian): > 100 µM
TGI (SNB-75 CNS): > 100 µM
TGI (SNB-19 CNS): > 100 µM
TGI (NCI-H226 lung): > 100 µM
TGI (OVCAR-8 ovarian): > 100 µM
TGI (M14 melanoma): > 100 µM
TGI (NCI-H460 lung): > 100 µM
TGI (UACC-257 melanoma): > 100 µM
TGI (RPMI-8226 leukemia): > 100 µM
TGI (HL-60(TB) leukemia): > 100 µM
TGI (IGROV1 ovarian): > 100 µM
TGI (RXF 393 renal): > 100 µM
TGI (SK-MEL-5 melanoma): > 100 µM
TGI (SN12C renal): > 100 µM
TGI (HT29 colon): > 100 µM
TGI (MDA-MB-435): > 100 µM
TGI (HCC-2998 colon): > 100 µM
TGI (786-0 renal): > 100 µM
TGI (SK-MEL-28 melanoma): > 100 µM
TGI (UO-31 renal): > 100 µM
TGI (SF-539 CNS): > 100 µM
TGI (MDA-N): > 100 µM
TGI (DU-145 prostate): > 100 µM
TGI (OVCAR-3 ovarian): > 100 µM
TGI (MALME-3M melanoma): > 100 µM
TGI (HCT-15 colon): > 100 µM
TGI (LOX IMVI melanoma): > 100 µM
TGI (SK-MEL-2 melanoma): > 100 µM
TGI (SK-OV-3 ovarian): > 100 µM
TGI (NCI-H23 lung): > 100 µM
TGI (HCT-116 colon): > 100 µM
TGI (NCI/ADR-RES ovarian): > 100 µM
TGI (UACC-62 melanoma): > 100 µM
TGI (SR leukemia): > 100 µM
TGI (MDA-MB-231 breast): > 100 µM
TGI (U251 CNS): > 100 µM
TGI (OVCAR-4 ovarian): > 100 µM
TGI (A498 renal): > 100 µM
TGI (SF-268 CNS): > 100 µM

CC1N(O)C(c2ccccc2)C(c2ccccc2)=[N+]1[O-] (stereo unspecified)
TGI (HS 578T breast): > 100 µM
TGI (KM12 colon): > 100 µM
TGI (COLO 205 colon): > 100 µM
TGI (HOP-92 NSCLC): > 100 µM
TGI (BT-549 breast): > 100 µM
TGI (PC-3 prostate): > 100 µM
TGI (MCF7 breast): > 100 µM
TGI (SW-620 colon): > 100 µM
TGI (TK-10 renal): > 100 µM
TGI (ACHN renal): > 100 µM
TGI (SF-295 CNS): > 100 µM
TGI (MOLT-4 leukemia): > 100 µM
TGI (A549 NSCLC): > 100 µM
TGI (CCRF-CEM leukemia): > 100 µM
TGI (CAKI-1 renal): > 100 µM
TGI (HOP-62 NSCLC): > 100 µM
TGI (OVCAR-5 ovarian): > 100 µM
TGI (SNB-75 CNS): > 100 µM
TGI (SNB-19 CNS): > 100 µM
TGI (NCI-H226 lung): > 100 µM
TGI (OVCAR-8 ovarian): > 100 µM
TGI (M14 melanoma): > 100 µM
TGI (NCI-H460 lung): > 100 µM
TGI (UACC-257 melanoma): > 100 µM
TGI (HL-60(TB) leukemia): > 100 µM
TGI (IGROV1 ovarian): > 100 µM
TGI (RXF 393 renal): > 100 µM
TGI (SK-MEL-5 melanoma): > 100 µM
TGI (SN12C renal): > 100 µM
TGI (HT29 colon): > 100 µM
TGI (HCC-2998 colon): > 100 µM
TGI (786-0 renal): > 100 µM
TGI (EKVX NSCLC): > 100 µM
TGI (SK-MEL-28 melanoma): > 100 µM
TGI (UO-31 renal): > 100 µM
TGI (SF-539 CNS): > 100 µM
TGI (K-562 leukemia): > 100 µM
TGI (MDA-N): > 100 µM
TGI (OVCAR-3 ovarian): > 100 µM
TGI (MALME-3M melanoma): > 100 µM
TGI (HCT-15 colon): > 100 µM
TGI (LOX IMVI melanoma): > 100 µM
TGI (SK-MEL-2 melanoma): > 100 µM
TGI (SK-OV-3 ovarian): > 100 µM
TGI (NCI-H23 lung): > 100 µM
TGI (HCT-116 colon): > 100 µM
TGI (NCI/ADR-RES ovarian): > 100 µM
TGI (UACC-62 melanoma): > 100 µM
TGI (SR leukemia): > 100 µM
TGI (MDA-MB-231 breast): > 100 µM
TGI (U251 CNS): > 100 µM
TGI (OVCAR-4 ovarian): > 100 µM
TGI (A498 renal): > 100 µM
